Source: US9624241B2 (Incyte Corporation, priority 2013, dated 2017)

Legend:
Format in all cases: binding
BRD4-BD2 [1] = biological target: T1, BRD4-BD2 (Homo sapiens (Human), UniProt O60885); assay: BRD4 AlphaScreen Assay (Example A1), BRD4-BD2; conditions: Assay A1, 20 nM BRD4-BD2, 50 nM H4Ac4 peptide; read-out: BRD4 BD-2 enzyme IC50
Procedure: (§1) BRD4-BD1 and BRD4-BD2 assays were conducted in white 384-well polystyrene plate in a final volume of 20 μL for BD1 and 40 μL for BD2. Inhibitors were first serially diluted in DMSO and added to the plate wells before the addition of other reaction components. […] After plate sealing, the plate was incubated in the dark at room temperature for 75 min. before reading on a PHERAstar FS plate reader (BMG Labtech). IC50 determination was performed by fitting the curve of percent control activity versus the log of the inhibitor concentration using the GraphPad Prism 5.0 software.

BRD4-BD1 [2] = biological target: T2, BRD4-BD1 (Homo sapiens (Human), UniProt O60885); assay: BRD4 AlphaScreen Assay (Example A1), BRD4-BD1; conditions: Assay A1, 3.8 nM BRD4-BD1, 50 nM H4Ac4 peptide; read-out: BRD4 BD-1 enzyme IC50
Procedure: as §1

BRD4-BD2 [3] = biological target: T1, BRD4-BD2; assay: BRD4 AlphaScreen Assay (Example A2), BRD4-BD2; conditions: Assay A2, AlphaScreen, BRD4-BD2; read-out: BRD4 BD-2 enzyme IC50
How it was run: (§2)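 Displacement of 50 nM biotinylated tetra-acetylated histone H4 peptide from BRD4 BD1 or BD2 (<1 nM) in Tris-HCl pH 7.5 buffer with DTT. Inhibitors serially diluted in DMSO, added first, then incubated 75 min in the dark at room temperature before AlphaScreen read. IC50 fitted from percent control activity versus log concentration.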

BRD4-BD1 [4] = biological target: T2, BRD4-BD1; assay: BRD4 AlphaScreen Assay (Example A2), BRD4-BD1; conditions: Assay A2, AlphaScreen, BRD4-BD1; read-out: BRD4 BD-1 enzyme IC50
How it was run: as §2

Row | Compound | IC50 (BRD4-BD2 [1]) [nM] | IC50 (BRD4-BD1 [2]) [nM] | IC50 (BRD4-BD2 [3]) [nM] | IC50 (BRD4-BD1 [4]) [nM]
1 | Cc1noc(C)c1-c1ccc2[nH]c(=O)n3c2c1OCC3c1ccccn1 (single isomer, unassigned) [Example 14, 7-(3,5-Dimethylisoxazol-4-yl)-4-pyridin-2-yl-4,5-dihydroimidazo[1,5,4-de][1,4]benzoxazin-2(1H)-one] | 1000 to 10000 | 1000 to 10000 | – | –
2 | Cc1noc(C)c1-c1ccc2[nH]c(=O)n3c2c1OCC3C1CCCO1 (single isomer, unassigned) [Example 18A, 7-(3,5-Dimethylisoxazol-4-yl)-4-(tetrahydrofuran-2-yl)-4,5-dihydroimidazo[1,5,4-de][1,4]benzoxazin-2(1H)-one] | < 100 | 100 to 1000 | – | –
3 | Cc1noc(C)c1-c1ccc2[nH]c(=O)n3c2c1OCC3C1CCCO1 (single isomer, unassigned) [Example 18B, 7-(3,5-Dimethylisoxazol-4-yl)-4-(tetrahydrofuran-2-yl)-4,5-dihydroimidazo[1,5,4-de][1,4]benzoxazin-2(1H)-one] | < 100 | 100 to 1000 | – | –
4 | Cc1noc(C)c1-c1ccc2nc(NC(C)CO)n3c2c1OCC3c1ccccc1 (single isomer, unassigned) [Example 30, 2-{[7-(3,5-Dimethylisoxazol-4-yl)-4-phenyl-4,5-dihydroimidazo[1,5,4-de][1,4]benzoxazin-2-yl]amino}propan-1-ol] | < 100 | < 100 | – | –
5 | Cc1noc(C)c1-c1ccc2nc(NC(C)CO)n3c2c1OCC3c1ccccc1 (single isomer, unassigned) [Example 31, 2-{[7-(3,5-Dimethylisoxazol-4-yl)-4-phenyl-4,5-dihydroimidazo[1,5,4-de][1,4]benzoxazin-2-yl]amino}propan-1-ol] | < 100 | < 100 | – | –
6 | Cc1noc(C)c1-c1ccc2c3c1OCC(c1ccccc1)n3c(=O)n2C (stereo not shown) [Example 2, 7-(3,5-Dimethylisoxazol-4-yl)-1-methyl-4-phenyl-4,5-dihydroimidazo[1,5,4-de][1,4]benzoxazin-2(1H)-one] | < 100 | < 100 | – | –
7 | Cc1noc(C)c1-c1ccc2[nH]c(=O)n3c2c1OC(C)C3c1ccccc1 (stereo not shown) [Example 3, 7-(3,5-Dimethylisoxazol-4-yl)-5-methyl-4-phenyl-4,5-dihydroimidazo[1,5,4-de][1,4]benzoxazin-2(1H)-one] | < 100 | < 100 | – | –
8 | Cc1noc(C)c1-c1ccc2nc(N3CC(NC(=O)OC(C)(C)C)C3)n3c2c1OC[C@@H]3c1ccccn1 [Example 196, tert-butyl {1-[(4S)-7-(3,5-dimethylisoxazol-4-yl)-4-pyridin-2-yl-4,5-dihydroimidazo[1,5,4-de][1,4]benzoxazin-2-yl]azetidin-3-yl}carbamate] | – | – | < 100 | < 100
9 | Cc1noc(C)c1-c1ccc2nc(N3CC(NC(=O)C(C)C)C3)n3c2c1OC[C@@H]3c1ccccn1 [Example 233, N-{1-[(4S)-7-(3,5-dimethylisoxazol-4-yl)-4-pyridin-2-yl-4,5-dihydroimidazo[1,5,4-de][1,4]benzoxazin-2-yl]azetidin-3-yl}-2-methylpropanamide] | – | – | < 100 | < 100
10 | CCS(=O)(=O)NC1CN(c2nc3ccc(-c4c(C)noc4C)c4c3n2[C@@H](c2ccccn2)CO4)C1 [Example 238, N-{1-[(4S)-7-(3,5-dimethylisoxazol-4-yl)-4-pyridin-2-yl-4,5-dihydroimidazo[1,5,4-de][1,4]benzoxazin-2-yl]azetidin-3-yl}ethanesulfonamide] | – | – | < 100 | < 100
11 | Cc1noc(C)c1-c1c(Cl)c(Cl)c2[nH]c(=O)n3c2c1OC[C@@H]3c1ccccn1 [Example 252, (4S)-8,9-dichloro-7-(3,5-dimethylisoxazol-4-yl)-4-pyridin-2-yl-4,5-dihydroimidazo[1,5,4-de][1,4]benzoxazin-2(1H)-one bistrifluoroacetate] | – | – | 100 to 1000 | 100 to 1000
12 | Cc1noc(C)c1-c1ccc2[nH]c(=S)n3c2c1OCC3c1ccccn1 (stereo not shown) [Example 255, 7-(3,5-Dimethylisoxazol-4-yl)-4-pyridin-2-yl-4,5-dihydroimidazo[1,5,4-de][1,4]benzoxazine-2(1H)-thione] | – | – | < 100 | < 100
13 | Cc1noc(C)c1-c1cc(-c2cn[nH]c2C)c2[nH]c(=O)n3c2c1OCC3c1ccccn1 (stereo not shown) [Example 257, 7-(3,5-dimethylisoxazol-4-yl)-9-(3-methyl-1H-pyrazol-4-yl)-4-pyridin-2-yl-4,5-dihydroimidazo[1,5,4-de][1,4]benzoxazin-2(1H)-one] | – | – | < 100 | 100 to 1000
14 | Cc1n[nH]c(C)c1-c1cc(-c2c(C)noc2C)c2c3c1[nH]c(=O)n3C(c1ccccn1)CO2 (stereo not shown) [Example 258, 7-(3,5-dimethylisoxazol-4-yl)-9-(3,5-dimethyl-1H-pyrazol-4-yl)-4-pyridin-2-yl-4,5-dihydroimidazo[1,5,4-de][1,4]benzoxazin-2(1H)-one] | – | – | 100 to 1000 | 1000 to 10000
15 | Cc1noc(C)c1-c1cc(-c2ccnc(O)c2)c2[nH]c(=O)n3c2c1OC[C@@H]3c1ccccn1 [Example 260, (4S)-7-(3,5-dimethylisoxazol-4-yl)-9-(2-hydroxypyridin-4-yl)-4-pyridin-2-yl-4,5-dihydroimidazo[1,5,4-de][1,4]benzoxazin-2(1H)-one] | – | – | < 100 | 100 to 1000
16 | Cc1noc(C)c1-c1cc(-c2cccnc2O)c2[nH]c(=O)n3c2c1OC[C@@H]3c1ccccn1 [Example 261, (4S)-7-(3,5-dimethylisoxazol-4-yl)-9-(2-hydroxypyridin-3-yl)-4-pyridin-2-yl-4,5-dihydroimidazo[1,5,4-de][1,4]benzoxazin-2(1H)-one] | – | – | < 100 | 100 to 1000
17 | Cc1noc(C)c1-c1cc(C#N)c2[nH]c(=O)n3c2c1OCC3c1ccccn1 (stereo not shown) [Example 269A, 7-(3,5-dimethylisoxazol-4-yl)-2-oxo-4-pyridin-2-yl-1,2,4,5-tetrahydroimidazo[1,5,4-de][1,4]benzoxazine-9-carbonitrile] | – | – | < 100 | < 100

Continued, values first:

Row | IC50 (BRD4-BD2 [1]) [nM] | IC50 (BRD4-BD1 [2]) [nM] | IC50 (BRD4-BD2 [3]) [nM] | IC50 (BRD4-BD1 [4]) [nM] | Compound
18 | – | – | 100 to 1000 | 100 to 1000 | Cc1noc(C)c1-c1cc(CNC(C)C)c2[nH]c(=O)n3c2c1OCC3c1ccccn1 (stereo not shown) [Example 253, 7-(3,5-Dimethylisoxazol-4-yl)-9-[(isopropylamino)methyl]-4-pyridin-2-yl-4,5-dihydroimidazo[1,5,4-de][1,4]benzoxazin-2(1H)-one]
19 | – | – | < 100 | < 100 | Cc1noc(C)c1-c1cc(CO)c2[nH]c(=O)n3c2c1OCC3c1ccccn1 (stereo not shown) [Example 254, 7-(3,5-Dimethylisoxazol-4-yl)-9-(hydroxymethyl)-4-pyridin-2-yl-4,5-dihydroimidazo[1,5,4-de][1,4]benzoxazin-2(1H)-one]
20 | – | – | < 100 | 100 to 1000 | Cc1noc(C)c1-c1cc(-c2ccc(O)nc2)c2[nH]c(=O)n3c2c1OC[C@@H]3c1ccccn1 [Example 259, (4S)-7-(3,5-dimethylisoxazol-4-yl)-9-(6-hydroxypyridin-3-yl)-4-pyridin-2-yl-4,5-dihydroimidazo[1,5,4-de][1,4]benzoxazin-2(1H)-one]
21 | – | – | < 100 | 1000 to 10000 | Cc1noc(C)c1-c1cc(CNc2ccccc2)c2[nH]c(=O)n3c2c1OCC3c1ccccn1 (stereo not shown) [Example 262, 9-(anilinomethyl)-7-(3,5-dimethylisoxazol-4-yl)-4-pyridin-2-yl-4,5-dihydroimidazo[1,5,4-de][1,4]benzoxazin-2(1H)-one]
22 | – | – | < 100 | 100 to 1000 | COc1ccc(CNCc2cc(-c3c(C)noc3C)c3c4c2[nH]c(=O)n4C(c2ccccn2)CO3)cc1 (stereo not shown) [Example 263, 7-(3,5-dimethylisoxazol-4-yl)-9-{[(4-methoxybenzyl)amino]methyl}-4-pyridin-2-yl-4,5-dihydroimidazo[1,5,4-de][1,4]benzoxazin-2(1H)-one]
23 | – | – | 1000 to 10000 | 1000 to 10000 | Cc1noc(C)c1-c1cc(F)c2[nH]c(=O)n3c2c1OCC3c1ccccn1 (stereo not shown) [Example 265A, 7-(3,5-dimethylisoxazol-4-yl)-9-fluoro-4-pyridin-2-yl-4,5-dihydroimidazo[1,5,4-de][1,4]benzoxazin-2(1H)-one]
24 | – | – | < 100 | < 100 | Cc1noc(C)c1-c1cc(F)c2[nH]c(=O)n3c2c1OCC3c1ccccn1 (stereo not shown) [Example 265B, 7-(3,5-dimethylisoxazol-4-yl)-9-fluoro-4-pyridin-2-yl-4,5-dihydroimidazo[1,5,4-de][1,4]benzoxazin-2(1H)-one]
25 | – | – | 100 to 1000 | 1000 to 10000 | Cc1noc(C)c1-c1cc(C)c2[nH]c(=O)n3c2c1OCC3c1ccccn1 (stereo not shown) [Example 268, 7-(3,5-dimethylisoxazol-4-yl)-9-methyl-4-pyridin-2-yl-4,5-dihydroimidazo[1,5,4-de][1,4]benzoxazin-2(1H)-one]
26 | – | – | 1000 to 10000 | 1000 to 10000 | Cc1noc(C)c1-c1cc(C#N)c2[nH]c(=O)n3c2c1OCC3c1ccccn1 (stereo not shown) [Example 269B, 7-(3,5-dimethylisoxazol-4-yl)-2-oxo-4-pyridin-2-yl-1,2,4,5-tetrahydroimidazo[1,5,4-de][1,4]benzoxazine-9-carbonitrile]
